From patent publication US20140314787A1, “Treatment for neurodegenerative diseases” (NOVARTIS FORSCHUNGSSTIFTUNG, ZWEIGNIEDERLASSUNG, FRIEDRICH …, priority 2011, published 2014)

Legend:
[1] = tested on: FSOD mice (mutant SOD1(G93A)); test: climb test of motor performance in FSOD mice; type: in vivo; conditions: for motor performance: figure legend (FIG. 9, FIG. 10)
Experimental: Climb test: Neurodegenerative status of the mice was tested using a climb test device developed by some of the inventors. This device is based on a flappable wire meshwork platform (10×10 cm) suspended from one corner by a rigid boom. The platform is suspended about 40 cm above a surface. The platform is fully open and the test is performed in ambient light. During the test, mice are prevented of climbing the boom by a transparent plastic disk. For the performance of the test, mice were gently transferred to the platform and allowed to explore it for 2 minutes. […] As soon as the mice reached the upper surface of the grid (all four limbs on the same side), the grid was gently flipped over so that the mice were not be allowed to rest. The number of performed climbs in the test period was counted, the test period being 11 minutes (5 min and 30 min variants have been tested as well). The climb movement to be performed by the mice involves a forceful yet brief push with fore- and hind-limbs, thus mimicking short-lived but powerful movements that are known to recruit fast motoneurons.
At day P27, mice were treated either with Eer-I (1 μg/g in 150 mM NaCl, s.c., daily) or with saline. Mice were tested at P29 and at P32.
On day P47 treatment was stopped and the mice were tested 2 days later.
Treatment dose was 1 μg/g in 150 mM NaCl, s.c., daily. Mice were treated and tested at baseline (p32), and thereafter tested in the climb test at 38, 43, 56 days of age.

VCP [2] = biological target: T1, VCP (Homo sapiens, UniProt P55072); conditions: literature (Chou T F et al. 2011); cited from earlier work
T1 sequence (P55072 whole entry): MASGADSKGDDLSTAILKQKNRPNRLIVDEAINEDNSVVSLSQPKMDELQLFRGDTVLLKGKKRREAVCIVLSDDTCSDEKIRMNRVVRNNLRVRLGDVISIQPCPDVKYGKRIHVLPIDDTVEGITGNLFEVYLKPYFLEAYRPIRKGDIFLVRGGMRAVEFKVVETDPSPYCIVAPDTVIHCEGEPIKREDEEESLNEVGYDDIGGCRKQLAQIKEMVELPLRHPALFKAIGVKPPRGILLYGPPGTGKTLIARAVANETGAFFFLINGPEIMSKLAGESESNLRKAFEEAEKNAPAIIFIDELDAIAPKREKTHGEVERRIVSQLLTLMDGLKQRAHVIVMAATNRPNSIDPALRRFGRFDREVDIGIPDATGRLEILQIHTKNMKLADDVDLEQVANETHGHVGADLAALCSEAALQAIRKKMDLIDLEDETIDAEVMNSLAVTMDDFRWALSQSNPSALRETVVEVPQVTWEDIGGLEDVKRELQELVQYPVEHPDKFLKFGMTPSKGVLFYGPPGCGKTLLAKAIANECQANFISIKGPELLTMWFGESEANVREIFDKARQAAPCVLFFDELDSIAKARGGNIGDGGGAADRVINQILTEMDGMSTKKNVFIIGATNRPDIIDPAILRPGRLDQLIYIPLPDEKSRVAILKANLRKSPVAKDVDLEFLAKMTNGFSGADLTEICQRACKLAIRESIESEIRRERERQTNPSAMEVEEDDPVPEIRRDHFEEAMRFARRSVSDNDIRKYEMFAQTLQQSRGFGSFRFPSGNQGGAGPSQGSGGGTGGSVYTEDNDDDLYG

[3] = tested on: FSOD mice (mutant SOD1(G93A)); test: grid test of motor performance / muscle strength in FSOD mice; type: in vivo
Experimental: Motor performance was assessed by grid test, a standard task for the quantification of muscle strength and neurological impairment.

[4] = body weight recording in treated mice; type: in vivo
Experimental: Body weight was recorded at P45, P65, P85 and then at 5-7 days intervals. Five mice per group were followed, representative individuals are shown.

[5] = tested on: Mutant SOD1(G93A) transgenic mice; test: survival of mutant SOD1(G93A) transgenic mice; type: in vivo
Experimental: Survival was determined up to the day of death or euthanasia (according to the termination criteria of a righting time >30 sec).

VCP [6] = test: VCP immunostaining intensity in lumbar spinal cord motoneurons; type: in vivo, mice
Experimental: After washing in PBS, lumbar (L2-L5) spinal cord was cryoprotected overnight in 30% sucrose. Lumbar spinal cord was embedded in OCT and sectioned at 50 μm. Sections were blocked in PBS-3% BSA −0.3% Triton X 100, and incubated double-overnight at 4 C in the same buffer plus anti VCP monoclonal antibody (Affinity Bioreagents) diluted 1:10,000 and polyclonal anti VAChT (Sigma) 1:1000. Sections were then briefly washed with PBS and incubated for 120 min at RT with goat-anti-rabbit (Alexa 647, Invitrogen) or goat-anti-mouse (Alexa 488, Invitrogen). Confocal images were acquired using an Zeiss LSM700 microscope, fitted with a 20×air objective. Images were processed using Imaris software. For the analysis of VCP labeling intensities, data were acquired with identical confocal settings, ensuring that signals at the brightest cells were not saturated, and that background levels outside clusters were still detectable. Images were then analyzed quantitatively using Image-Pro 5 software (Media Cybernetics). Signal intensities were acquired within areas inside cells, excluding areas lacking signal; background levels outside cells were subtracted from these values.

VCP [7] = biological target: T1, VCP; conditions: literature (Wang Q et al. 2008, 2010); cited from earlier work
[8] = 1 μg/g s.c. daily from weaning (P20), vs untreated
[9] = FSOD mice treated from P20, s.c. daily
[10] = FSOD mice treated from P63, s.c. daily

c1ccc(CNc2nc(NCc3ccccc3)c3ccccc3n2)cc1 [DBEQ, N^2,N^4-Dibenzylquinazoline-2,4-diamine]
motor performance ([1]; FSOD mice): improves motor performance | motor performance in the climb test ([1]; three FSOD mice, 1 μg/g s.c. daily after day 29, tested at P31, P34, 37 and 45): progressive improvement in motor performance reaching the range of wt mice | VCP inhibition (mode) (VCP [2]): reversible, ATP-competitive direct VCP inhibitor

CC1(C)C(N(O)C(=O)Nc2ccc(Cl)cc2)N(c2ccc(Cl)cc2)C(=O)N1CC(=O)NN=CC=Cc1ccc([N+](=O)[O-])o1 (stereo not shown) [Eer-I, 3-(4-Chlorophenyl)-4-[[[(4-chlorophenyl)amino]carbonyl]hydroxyamino]-5,5-dimethyl-2-oxo-1-imidazolidineacetic acid 2-[3-(5-nitro-2-furanyl)-2-propen-1-ylidene]hydrazide]
grid test performance soon after beginning of treatment ([3]; 1 μg/g s.c. daily from P63): fast improvement in performance | grid test performance vs untreated counterparts ([3]; 1 μg/g s.c. daily from P63): performed significantly better than their untreated counterparts | decline in muscle strength over time (grid test) [3, 8]: significantly slower decline | grid test performance at the earliest time point [3, 8]: better performance | motor disability ([3]; FIG. 3 legend): delays motor disability | climb performance ([1]; FSOD mice (n=4), 1 μg/g s.c. daily from P18, tested at P27, P37 and P47): comparable to wt mice | climb performance upon resumption of the treatment ([1]; FSOD mice (n=4), after withdrawal): quickly improved | treatment time until performance comparable with that before withdrawal ([1]; FSOD mice (n=4), resumption of treatment after withdrawal): 2 to 5 days | climb performance after 2 days of withdrawal of treatment ([1]; FSOD mice (n=4), treatment stopped on P47, tested at P49): sharp drop in performance, down to a level comparable with that of untreated FSOD mice of the same age | climb test performance (climb scores) [1, 9]: markedly preserved performance, with climb scores comparable with WT mice | duration of stable climb test performance [1, 9]: stable up to day P65 | climb score at day P85 [1, 10]: returning in the range of untreated FSOD mice | climb test performance [1, 10]: marked but transient improvement in performance | increase of climb score [1, 10]: up to four-fold | climb test performance after 5 days of treatment ([1]; FSOD mice, 1 μg/g s.c. daily from P27): level comparable with wt | climb test performance ([1]; FSOD mice, 1 μg/g s.c. daily from P27, tested at P29 and P32, vs saline): marked improvement in performance | performance in the climb test ([1]; FSOD mice, FIG. 4 legend): markedly improve | performance in the climb test ([1]; FSOD mice, FIG. 7 legend): quickly restores performance | body weight loss ([4]; FIG. 5 legend): delays body weight loss | bodyweight of FSOD mice ([4]; 1 μg/g s.c. daily from P63): stabilized at a level lower than the littermates treated from weaning | bodyweight of FSOD mice ([4]; 1 μg/g s.c. daily from weaning (P20)): stable bodyweight until day P140-145 | body weight of wild type mice ([4]; wild type mice, 1 μg/g s.c. daily): expected progressive increase in body weight | overt toxicity of the treatment ([4]; wild type mice, 1 μg/g s.c. daily, from body weight): lack of overt toxicity | survival vs untreated mutant mice ([5]; 1 μg/g s.c. daily since weaning (P20), n=7 per group): survived significantly longer | survival ([5]; FSOD mice, FIG. 6 legend): prolongs FSOD mice survival | average cytoplasmic VCP staining intensity in motoneurons (VCP [6]; FSOD mice treated with Eer-I vs FSOD and WT controls, lumbar spinal cord): significantly reduced (to an extent comparable with WT) | VCP upregulation (VCP [6]; FSOD mice, FIG. 11 legend): reverses VCP upregulation | degradation of target misfolded proteins whose translocation and disposal is dependent upon VCP (VCP [7]): prevent the degradation of target misfolded proteins

O=[N+]([O-])C=Cc1ccc2c(c1)OCO2 [Syk-inhibitor III, 3,4-Methylenedioxy-β-nitrostyrene]
motor performance ([1]; FSOD mice): improves motor performance | performance in the climb test ([1]; two mice, 1 μg/g s.c. daily, baseline p32, tested at 38, 43, 56 days of age): markedly improved and reached the range of performance for WT mice | VCP inhibition (mode) (VCP [2]): substantial efficacy as an irreversible inhibitor of the D2 ATPase site on VCP
